Test results published in patent publication US20100120775A1, “Farnesoid X Receptor Agonists” (SMITHKLINE BEECHAM CORPORATION, priority 2006, published 2010).

Biological target: T1, Human FXRα Ligand Binding Domain (Homo sapiens, UniProt Q96RI1)
T1 construct: polyhistidine (pRSET-A vector) (N); made in house; host or cells: E. coli BL21 (DE3), pRSET-A vector
T1 sequence (Q96RI1 237-472 isoform Q96RI1-2): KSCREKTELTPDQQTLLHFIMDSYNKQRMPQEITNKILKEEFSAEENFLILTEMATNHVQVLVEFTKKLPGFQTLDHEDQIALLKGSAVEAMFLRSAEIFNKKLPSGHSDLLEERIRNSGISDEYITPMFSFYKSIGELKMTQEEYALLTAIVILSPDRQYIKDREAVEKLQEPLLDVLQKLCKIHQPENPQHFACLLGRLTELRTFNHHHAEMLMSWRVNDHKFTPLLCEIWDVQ
Assay: FXR Cofactor Binding Assay (FXR LBD / SRC-1 peptide, time resolved fluorescence)
Details: FXRα LBD with biotinylated SRC-1 (LCD2, 676-700) peptide; for EC50: read-out: Activity (pEC50) (converted)
Description: Determination of a ligand mediated cofactor peptide interaction to quantify ligand binding to the nuclear receptor Farnesoid X Receptor (FXR). The method measures the ability of putative ligands to modulate the interaction between the purified bacterial expressed FXRα ligand binding domain (LBD) and a synthetic biotinylated peptide based on residues 676-700 of steroid receptor coactivator-1 (SRC-1) (LXXLL-containing domain-2 where L is the amino acid leucine and X indicates any other amino acid (LCD2), 676-700). The sequence of the SRC-1 peptide used is as published in Iannone, M. A., et al., 2001 Cytometry 44:326-337 where the N-terminus was biotinylated (B) and the C-terminus was amidated. Detection of the associated complex was measured by time resolved fluorescence (TRF). The purified LBD of FXR was labeled with biotin then mixed with stoichiometric amounts of allophycocyanin (APC) labeled streptavidin (Molecular Probes). The biotinylated peptide was then mixed with a ½ stoichiometric amount of europium labeled streptavidin (Wallac Inc). Each was then blocked with a 5 fold excess of biotin and allowed to equilibrate for 15 min. Equimolar amounts of receptor and peptide were mixed together and were allowed to equilibrate for at least 30 min prior to the addition to either a variable or constant concentrations of the sample for which the affinity is to be determined. After equilibration, the time-resolved fluorescent signal was quantitated using a fluorescent plate reader. The affinity of the test compound was estimated from a plot of fluorescence versus concentration of test compound added.
A basal level of FXR: peptide formation is observed in the absence of added ligand. Ligands that promote the complex formation induce a concentration-dependent increase in time-resolved fluorescent signal. Compounds which bind equally well to both monomeric FXR and to the FXR: peptide complex would be expected to give no change in signal, whereas ligands which bind preferentially to the monomeric receptor would be expected to induce a concentration-dependent decrease in the observed signal.
Human FXRα Ligand Binding Domain (FXRα LBD) was expressed in E. coli strain BL21 (DE3) as an amino-terminal polyhistidine tagged fusion protein. Expression was under the control of an isopropyl-13-D-thiogalactopyranoside (IPTG) inducible T7 promoter. DNA encoding this recombinant protein is subcloned into the pRSET-A expression vector (Invitrogen). The coding sequence of Human FXRα LBD was derived from Genbank accession number U 68233 (amino acids 237 to 472).
Routinely, 30-40 g cell paste (equivalent to 2-3 liters of the fermentation batch) was resuspended in 200-250 mL Tris buffered saline (TBS), pH 7.2 (25 mM Tris-hydroxymethylamino methane (Tris), 150 mM sodium chloride). Cells were lysed by passing 3 times through a French Press and cell debris was removed by centrifugation (30 minutes, 20,000×gravity, 4° C.). The cleared supernatant was filtered through course pre-filters, and TBS, pH 7.2, 500 mM imidazole was added to obtain a final imidazole concentration of 50 mM. This lysate was loaded onto a column (6×8 cm) packed with Sepharose [Ni^|| charged]Chelation resin (Pharmacia) and pre-equilibrated with TBS pH 7.2/50 mM imidazole. After washing to baseline absorbance with equilibration buffer, the column was washed with one column volume of TBS pH 7.2 containing 90 mM imidazole. FXRα LBD was eluted directly with 365 mM imidazole. Column fractions were pooled and dialyzed against TBS, pH 7.2, containing 0.5 mM EDTA and 5 mM DTT. The dialyzed protein sample was concentrated using Centri-prep 10 K (Amicon) and subjected to size exclusion, using a column (3×90 cm) packed with Sepharose S-75 resin (Pharmacia) pre-equilibrated with TBS, pH 7.2, containing 0.5 mM ethylene diamine tetraacetic acid (EDTA) and 5 mM dithiothreitol (DTT). […]

**Q.** Which EC50 does the source give for `Cc1ccnc(C)c1-c1noc(C(C)C)c1COc1ccc(-c2ccc3nc(C(=O)O)ccc3c2)cc1` [Example 29, 6-[4-({[3-(2,4-Dimethyl-3-pyridinyl)-5-(1-methylethyl)-4-isoxazolyl]methyl}oxy)phenyl]-2-quinolinecarboxylic acid] here?
**A.** Its EC50 is 102 to 1000 nM.

**Q.** `CC(C)c1onc(-c2c(Cl)cccc2Cl)c1COc1ccc(-c2ccc3nc(C(=O)O)ccc3c2)cc1` [Example 1h, Potassium 6-[4-({[3-(2,6-Dichlorophenyl)-5-(1-methylethyl)-4-isoxazolyl]methyl}oxy)phenyl]-2-quinolinecarboxylic Acid] was tested. Which “Activity (pEC50)” value did it give?
**A.** Its value is “++ (++ indicates a pEC50 6-6.99)”.

**Q.** How did the EC50 turn out when `CC(C)c1onc(-c2c(Cl)cccc2Cl)c1CSc1ccc(-c2ccc3nc(C(=O)O)ccc3c2)cc1` [Example 38, 6-[4-({[3-(2,6-Dichlorophenyl)-5-(1-methylethyl)-4-isoxazolyl]methyl}thio)phenyl]-2-quinolinecarboxylic acid] was run?
**A.** Its EC50 is 102 to 1000 nM.

**Q.** For `Cc1cc(-c2ccc3nc(C(=O)O)ccc3c2)ccc1OCc1c(-c2c(Cl)cccc2Cl)noc1C(C)C` [Example 32, 6-[4-({[3-(2,6-Dichlorophenyl)-5-(1-methylethyl)-4-isoxazolyl]methyl}oxy)-3-methylphenyl]-2-quinolinecarboxylic acid], which EC50 is on record?
**A.** Its EC50 is 102 to 1000 nM.

**Q.** For `Cc1cc(C(=O)O)nc2ccc(-c3ccc(OCc4c(-c5c(Cl)cccc5Cl)noc4C(C)C)cc3)cc12` [Example 34, 6-[4-({[3-(2,6-Dichlorophenyl)-5-(1-methylethyl)-4-isoxazolyl]methyl}oxy)phenyl]-4-methyl-2-quinolinecarboxylic acid], which EC50 is on record?
**A.** Its EC50 is less than 100 nM.

**Q.** Which EC50 does the source give for `O=C(O)c1ccc2cc(-c3ccc(OCc4c(-c5c(Cl)cccc5Cl)noc4C4CCCC4)cc3)ccc2n1` [Example 6, 6-[4-({[5-Cyclopentyl-3-(2,6-dichlorophenyl)-4-isoxazolyl]methyl}oxy)phenyl]-2-quinolinecarboxylic acid] here?
**A.** The EC50 was 102 to 1000 nM.

**Q.** `O=C(O)c1cc2ccc(-c3ccc(OCc4c(-c5c(Cl)cncc5Cl)noc4C4CCC4)cc3)cc2cn1` [Example 9, 7-[4-({[5-Cyclobutyl-3-(3,5-dichloro-4-pyridinyl)-4-isoxazolyl]methyl}oxy)phenyl]-3-isoquinolinecarboxylic acid] was tested. Which EC50 did it give?
**A.** The EC50 was 102 to 1000 nM.

**Q.** For `CC[C@@H](C)c1onc(-c2c(Cl)cccc2Cl)c1COc1ccc(-c2ccc3nc(C(=O)O)ccc3c2)cc1` [Example 14, 6-{4-[({3-(2,6-Dichlorophenyl)-5-[(1R)-1-methylpropyl]-4-isoxazolyl}methyl)oxy]phenyl}-2-quinolinecarboxylic acid], which EC50 is on record?
**A.** Its EC50 is 102 to 1000 nM.

**Q.** How did the EC50 turn out when `CC(C)c1onc(-c2c(Cl)cccc2Cl)c1COc1ccc(-c2cc3ccc(C(=O)O)nc3cc2F)cc1` [Example 30, 6-[4-({[3-(2,6-Dichlorophenyl)-5-(1-methylethyl)-4-isoxazolyl]methyl}oxy)phenyl]-7-fluoro-2-quinolinecarboxylic acid] was run?
**A.** The EC50 was 102 to 1000 nM.

**Q.** With `CC(C)c1onc(-c2c(Cl)cccc2Cl)c1COc1ccc(-c2ccc3c(C(=O)O)ccnc3c2)cc1` [Example 4, 7-[4-({[3-(2,6-Dichlorophenyl)-5-(1-methylethyl)-4-isoxazolyl]methyl}oxy)phenyl]-4-quinolinecarboxylic acid] as the compound, how does the EC50 read?
**A.** The EC50 was 102 to 1000 nM.

**Q.** With `O=C(O)c1ccc2cc(-c3ccc(OCc4c(-c5c(Cl)cncc5Cl)noc4C4CCC4)cc3)ccc2n1` [Example 8] as the compound, how does the EC50 read?
**A.** Its EC50 is 102 to 1000 nM.

**Q.** How did the EC50 turn out when `CC(C)c1onc(-c2c(Cl)cccc2Cl)c1COc1ccc(-c2ccc3nc(C(=O)O)ccc3c2)cc1` [Example 1g, 6-[4-({[3-(2,6-Dichlorophenyl)-5-(1-methylethyl)-4-isoxazolyl]methyl}oxy)phenyl]-2-quinolinecarboxylic acid] was run?
**A.** The EC50 was 102 to 1000 nM.

**Q.** Which EC50 does the source give for `CC(C)c1onc(COc2c(F)cc(F)cc2F)c1COc1ccc(-c2ccc3nc(C(=O)O)ccc3c2)cc1` [Example 19, 6-(4-{[(5-(1-Methylethyl)-3-{[(2,4,6-trifluorophenyl)oxy]methyl}-4-isoxazolyl)methyl]oxy}phenyl)-2-quinolinecarboxylic acid] here?
**A.** Its EC50 is 102 to 1000 nM.

**Q.** Which EC50 does the source give for `Cc1cccc(C)c1OCc1noc(C2CCC2)c1COc1ccc(-c2ccc3cc(C(=O)O)ncc3c2)cc1` [Example 17, 7-(4-{[(5-Cyclobutyl-3-{[(2,6-dimethylphenyl)oxy]methyl}-4-isoxazolyl)methyl]oxy}phenyl)-3-isoquinolinecarboxylic acid] here?
**A.** The EC50 was 102 to 1000 nM.

**Q.** For `CC(C)c1onc(CS(=O)(=O)c2c(Cl)cccc2Cl)c1COc1ccc(-c2ccc3nc(C(=O)O)ccc3c2)cc1` [Example 24, 6-[4-({[3-{[(2,6-Dichlorophenyl)sulfonyl]methyl}-5-(1-methylethyl)-4-isoxazolyl]methyl}oxy)phenyl]-2-quinolinecarboxylic acid], which EC50 is on record?
**A.** The EC50 was 1020 to 10000 nM.

**Q.** With `O=C(O)c1ccc2cc(-c3ccc(OCc4c(-c5c(Cl)cncc5Cl)noc4C4CC4)cc3)ccc2n1` [Example 12, 6-[4-({[5-Cyclopropyl-3-(3,5-dichloro-4-pyridinyl)-4-isoxazolyl]methyl}oxy)phenyl]-2-quinolinecarboxylic acid] as the compound, how does the EC50 read?
**A.** Its EC50 is 102 to 1000 nM.

**Q.** With `CC(C)c1onc(CSc2c(Cl)cccc2Cl)c1COc1ccc(-c2ccc3nc(C(=O)O)ccc3c2)cc1` [Example 22, 6-[4-({[3-{[(2,6-Dichlorophenyl)thio]methyl}-5-(1-methylethyl)-4-isoxazolyl]methyl}oxy)phenyl]-2-quinolinecarboxylic acid] as the compound, how does the EC50 read?
**A.** Its EC50 is 102 to 1000 nM.

**Q.** For `Cc1nc(C(=O)O)nc2ccc(-c3ccc(OCc4c(-c5c(Cl)cccc5Cl)noc4C(C)C)cc3)cc12` [Example 37, 6-[4-({[3-(2,6-Dichlorophenyl)-5-(1-methylethyl)-4-isoxazolyl]methyl}oxy)phenyl]-4-methyl-2-quinazolinecarboxylic acid], which EC50 is on record?
**A.** The EC50 was 102 to 1000 nM.

**Q.** With `Cc1nc2ccc(-c3ccc(OCc4c(-c5c(Cl)cccc5Cl)noc4C(C)C)cc3)cc2cc1C(=O)O` [Example 35, 6-[4-({[3-(2,6-Dichlorophenyl)-5-(1-methylethyl)-4-isoxazolyl]methyl}oxy)phenyl]-2-methyl-3-quinolinecarboxylic acid] as the compound, how does the EC50 read?
**A.** The EC50 was 102 to 1000 nM.

**Q.** How did the EC50 turn out when `CC(C)c1onc(-c2c(Cl)cccc2Cl)c1CCCOc1ccc(-c2ccc3nc(C(=O)O)ccc3c2)cc1` [Example 15, 6-[4-({3-[3-(2,6-Dichlorophenyl)-5-(1-methylethyl)-4-isoxazolyl]propyl}oxy)phenyl]-2-quinolinecarboxylic acid] was run?
**A.** Its EC50 is 102 to 1000 nM.

**Q.** For `CC[C@H](C)c1onc(-c2c(Cl)cccc2Cl)c1COc1ccc(-c2ccc3nc(C(=O)O)ccc3c2)cc1` [Example 13, 6-{4-[({3-(2,6-Dichlorophenyl)-5-[(1S)-1-methylpropyl]-4-isoxazolyl}methyl)oxy]phenyl}-2-quinolinecarboxylic acid], which EC50 is on record?
**A.** The EC50 was 102 to 1000 nM.

**Q.** How did the EC50 turn out when `CC(C)c1onc(-c2c(Cl)cccc2Cl)c1COc1ccc(-c2ccc3cc(C(=O)O)cnc3c2)cc1` [Example 2, 7-[4-({[3-(2,6-Dichlorophenyl)-5-(1-methylethyl)-4-isoxazolyl]methyl}oxy)phenyl]-3-quinolinecarboxylic acid] was run?
**A.** The EC50 was 102 to 1000 nM.

**Q.** With `Cc1cccc(C)c1OCc1noc(C(C)C)c1COc1ccc(-c2ccc3cc(C(=O)O)ncc3c2)cc1` [Example 16, 7-[4-({[3-{[(2,6-Dimethylphenyl)oxy]methyl}-5-(1-methylethyl)-4-isoxazolyl]methyl}oxy)phenyl]-3-isoquinolinecarboxylic acid] as the compound, how does the EC50 read?
**A.** The EC50 was 102 to 1000 nM.
